Experimental data published in patent publication US20220023258A1, “METHODS OF TREATING CONDITIONS RELATED TO THE S1P1 RECEPTOR” (Arena Pharmaceuticals, Inc., priority 2018, published 2022).
Entries after “also recorded” stand apart in the source; their conditions may differ. Where a name gives a salt, the structure may show the parent alone.

Assays:
lymphocytes [1] = experiment: Multiple ascending dose study: lymphocyte counts; type: in vivo, human; conditions: for Lymphocytes On Treatment Mean (SD) / Lymphocytes Percent Change from Baseline Mean / Lymphocytes Percent Change from Baseline Median / Lymphocytes Percent Change from Baseline Min, Max: day 21
Experimental: A randomized, double-blind, placebo-controlled, sequential, ascending, multiple dose study to assess the safety, tolerability, and pharmacokinetics of the L-arginine salt of Compound 1 administered to healthy adult subjects was conducted. This study was designed to evaluate the safety, tolerability, pharmacokinetics, and pharmacodynamics of the L-arginine salt of Compound 1.
Cohort 1 was dosed with 0.7 mg (by administering two 0.35 mg formulations) for 21 days. Cohort 2 was dosed with 1.35 mg (by administering both a 0.35 mg formulation and a 1 mg formulation) for 21 days. Cohort 3 was dosed with 2.0 mg for 21 days. Cohort 4 was dosed with 0.35 mg for 7 days and then with 2.0 mg for 14 days. Cohort 5 was dosed with 0.5 for 7 days and then with 3.0 mg (by administering both a 1 mg formulation and a 2 mg formulation) for 14 days.

[2] = test system: patients with ulcerative colitis; experiment: Dose-ranging study in ulcerative colitis: Mayo scores, endoscopic improvement, remission; type: in vivo, human; conditions: for improvement in 2-component Mayo Score relative to placebo / improvement in Total Mayo Score relative to placebo: Week 12; for proportion of patients achieving clinical remission, defined by the 3-component Mayo Score / improvement in 3-component Partial Mayo Score relative to placebo / patients who achieved endoscopic improvement: week 12
Source text: The treatment formulation was composed of immediate-release, hard gelatin capsules containing L-arginine salt of Compound 1. The placebo was composed of hard gelatin capsules containing microcrystalline cellulose. […] The primary objective of this proof-of-concept study was to determine the effect of treatment with the L-arginine salt of Compound 1 in changing 3-component Mayo Clinic score (score ranging from 0 to 9, including stool frequency, rectal bleeding and findings on endoscopy) at 12 weeks. […] ANCOVA model, adjusted for current oral corticosteroid use, prior exposure to TNF-alpha antagonists, and baseline value, was used to estimate changes in Mayo Clinic Score. Mantel-Haenszel method (estimated treatment difference by adjusting current oral corticosteroid use and prior exposure to TNF-alpha antagonists) used to estimate proportion difference for dichotomous parameters. Missing individual Mayo subscores impacting efficacy measures were imputed using multiple imputation methodology with observed case analysis for sensitivity. […] Hierarchical closed testing procedure for primary and secondary endpoints at 0.05 alpha level was used.

lymphocytes [3] = experiment: Dose-ranging study in ulcerative colitis: lymphocyte counts; type: in vivo, human; conditions: 12 weeks
Source text: Exploratory endpoints included change from baseline in lymphocyte counts at Weeks 1, 2, 4, 8, and 12; proportion of patients achieving clinical remission at Week 12; and proportion of patients who achieve clinical response at Week 12.

[4] = test system: patients with ulcerative colitis; experiment: Dose-ranging study in ulcerative colitis: safety; conditions: for serious adverse events (SAEs): placebo 11.1%;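 as to all read-outs here: Double-blind randomized parallel-group trial versus placebo, with the study drug given orally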
Experimental: Patients were instructed to take their capsule on an empty stomach (overnight fast of approximately 8 hours) and to avoid eating for approximately 1 hour after dosing.

healthy adult subjects = experiment: Multiple ascending dose study: safety and tolerability
Experimental: The following safety assessments were conducted: physical examinations with ophthalmoscopy, clinical laboratory tests (serum chemistry, coagulation, and urinalysis), vital signs, continuous telemetry (12 lead ECG), safety ECGs, pulmonary function testing (PFT), serum protein electrophoresis (SPEP) and serum immunoelectrophoresis (IEP), and adverse event reporting.

[5] = 0.35 mg for 7 days then 2.0 mg for 14 days
[6] = 0.5 mg for 7 days then 3.0 mg for 14 days

Structure (SMILES): O=C(O)C[C@H]1CCc2c1[nH]c1ccc(OCc3ccc(C4CCCC4)c(C(F)(F)F)c3)cc21 [L-arginine salt of Compound 1]
- Lymphocytes On Treatment Mean (SD) (lymphocytes [1]; [5]): 0.62 (0.18) 10^3/μl
- Lymphocytes Percent Change from Baseline Mean (lymphocytes [1]; [5]): −67.34%
- Lymphocytes Percent Change from Baseline Median (lymphocytes [1]; [5]): −67.54%
- Lymphocytes Percent Change from Baseline Min, Max (lymphocytes [1]; [5]): −77.27 to −57.14%
- Lymphocytes On Treatment Mean (SD) (lymphocytes [1]; [6]): 0.62 (0.25) 10^3/μl
- Lymphocytes Percent Change from Baseline Mean (lymphocytes [1]; [6]): −66.16%
- Lymphocytes Percent Change from Baseline Median (lymphocytes [1]; [6]): −65.02%
- Lymphocytes Percent Change from Baseline Min, Max (lymphocytes [1]; [6]): −85.19 to −53.85%
- Lymphocytes On Treatment Mean (SD) (lymphocytes [1]; 0.7 mg for 21 days): 1.06 (0.28) 10^3/μl
- Lymphocytes Percent Change from Baseline Mean (lymphocytes [1]; 0.7 mg for 21 days): −41.03%
- Lymphocytes Percent Change from Baseline Median (lymphocytes [1]; 0.7 mg for 21 days): −40.37%
- Lymphocytes Percent Change from Baseline Min, Max (lymphocytes [1]; 0.7 mg for 21 days): −55.56 to −23.08%
- Lymphocytes On Treatment Mean (SD) (lymphocytes [1]; 1.35 mg for 21 days): 0.89 (0.32) 10^3/μl
- Lymphocytes Percent Change from Baseline Mean (lymphocytes [1]; 1.35 mg for 21 days): −53.43%
- Lymphocytes Percent Change from Baseline Median (lymphocytes [1]; 1.35 mg for 21 days): −51.85%
- Lymphocytes Percent Change from Baseline Min, Max (lymphocytes [1]; 1.35 mg for 21 days): −68.75 to −30.77%
- Lymphocytes On Treatment Mean (SD) (lymphocytes [1]; 2.0 mg for 21 days): 0.62 (0.18) 10^3/μl
- Lymphocytes Percent Change from Baseline Mean (lymphocytes [1]; 2.0 mg for 21 days): −68.81%
- Lymphocytes Percent Change from Baseline Median (lymphocytes [1]; 2.0 mg for 21 days): −69.44%
- Lymphocytes Percent Change from Baseline Min, Max (lymphocytes [1]; 2.0 mg for 21 days): −80.00 to −55.56%
- dose with maximal effect on lymphocyte lowering (dose-dependent) (lymphocytes [1]; multiple dosing 21 days): 2 mg
- improvement in 2-component Mayo Score relative to placebo ([2]; 1 mg q.d., p=0.086): 0.39
- improvement in Total Mayo Score relative to placebo ([2]; 1 mg q.d., p=0.128): 0.60
- proportion of patients achieving clinical remission, defined by the 3-component Mayo Score ([2]; 1 mg q.d., p=0.136): 16.0%
- improvement in 3-component Partial Mayo Score relative to placebo ([2]; 1 mg q.d., p=0.146): 0.43
- patients who achieved endoscopic improvement ([2]; 1 mg q.d., p=0.306): 22.5%
- Remission defined by the 4-component Total Mayo Score ([2]; 1 mg q.d., p=0.077): 15.4%
- improvement in Total Mayo Score relative to placebo ([2]; 2 mg q.d., p=0.010): 1.27
- proportion of patients achieving clinical remission, defined by the 3-component Mayo Score ([2]; 2 mg q.d., p<0.001 vs placebo 8.1%): 33.0%
- patients who achieved endoscopic improvement ([2]; 2 mg q.d., p=0.003 vs placebo 17.8%): 41.8%
- improvement in 3-component Partial Mayo Score relative to placebo ([2]; 2 mg q.d., p=0.009): 0.99
- improvement in 2-component Mayo Score relative to placebo ([2]; dose not printed in sentence (high dose), p=0.002): 0.84
- Remission defined by the 4-component Total Mayo Score ([2]; dose not printed in sentence (high dose), p=0.004 vs placebo 6.0%): 24.5%
- reduction in lymphocytes relative to placebo (lymphocytes [3]; 1 mg q.d.): 37%
- reduction in lymphocytes relative to placebo (lymphocytes [3]; 2 mg q.d., p<0.001): 57%
- % of Patients with Serious TEAE ([4]; 1 mg (n = 52)): (5.8) %
- % of Patients with TEAE Leading to Discontinuation of Study Drug ([4]; 1 mg (n = 52)): (5.8) %
- % of Patients with any TEAE ([4]; 1 mg (n = 52)): (59.6) %
- Number of Deaths of Any Reason ([4]; 1 mg (n = 52)): 0
- Number of Patients with Serious TEAE ([4]; 1 mg (n = 52)): 3
- Number of Patients with TEAE Leading to Discontinuation of Study Drug ([4]; 1 mg (n = 52)): 3
- Number of Patients with any TEAE ([4]; 1 mg (n = 52)): 31
- discontinuations from study related to bradycardia or AV block ([4]; 1 mg and 2 mg q.d., 12 weeks): no discontinuations from study related to bradycardia or AV block
- liver function tests (LFTs) compared to placebo ([4]; 1 mg and 2 mg q.d., 12 weeks): no increases in liver function tests
- reports of macular edema or pulmonary function test abnormalities ([4]; 1 mg and 2 mg q.d., 12 weeks): no reports of macular edema or pulmonary function test abnormalities; also recorded: no reports of macular edema; and no reports of abnormal pulmonary function tests
- serious adverse events related to heart rate changes or AV block ([4]; 1 mg and 2 mg q.d., 12 weeks): No serious adverse events related to heart rate changes or AV block
- severe or life-threatening infection ([4]; 1 mg and 2 mg q.d., 12 weeks): No severe or life-threatening infection occurred
- tolerability ([4]; 1 mg and 2 mg q.d., 12 weeks): well tolerated
- serious adverse events (SAEs) ([4]; 1 mg q.d.): 5.8%
- % of Patients with TEAE Leading to Discontinuation of Study Drug ([4]; 2 mg (n = 50)): (8.0) %
- % of Patients with any TEAE ([4]; 2 mg (n = 50)): (56.0) %
- Number of Deaths of Any Reason ([4]; 2 mg (n = 50)): 0
- Number of Patients with Serious TEAE ([4]; 2 mg (n = 50)): 0
- Number of Patients with TEAE Leading to Discontinuation of Study Drug ([4]; 2 mg (n = 50)): 4
- Number of Patients with any TEAE ([4]; 2 mg (n = 50)): 28
- serious adverse events (SAEs) ([4]; 2 mg q.d.): 0%
- mean change (decrease) in heart rate, hourly ECGs ([4]; Day 1, any time point, both 1 mg and 2 mg groups): < 10 bpm
- mean decrease in heart rate from baseline ([4]; after Day 1 through 12 weeks, either dose group (1 mg, 2 mg)): ≤ 6 bpm
- mildly abnormal reproducible (NCS) pulmonary function test findings (FEV1 below 80%, FVC) post-dose (healthy adult subjects; 1.35 mg dose): One subject
- subjects who developed new 1″ degree atrioventricular block (healthy adult subjects; 2 mg group): 1 subject
- subjects with mildly abnormal post-treatment liver function tests (ALT & AST >2× ULN) (healthy adult subjects; 2 mg group): 1 subject
- subjects who developed new 1″ degree atrioventricular block (healthy adult subjects; 0.5, 3 mg group): 1 subject
- subjects with mildly abnormal post-treatment liver function tests (ALT & AST >2× ULN) (healthy adult subjects; 0.5 escalating to 3 mg group): 1 subject
- SAEs or deaths (healthy adult subjects; all dose levels): No SAEs or deaths occurred
- ophthalmoscopy findings (healthy adult subjects; all dose levels): No clinically significant change from baseline
- other safety issues (vital signs, ECGs, PFTs, ophthalmoscopy, clinical laboratory tests) (healthy adult subjects; all dose levels): no other clinically significant safety issues
- second degree heart block (healthy adult subjects; all dose levels): No second degree heart block was found
- subjects discontinued due to an adverse event (healthy adult subjects; all dose levels): No subjects were discontinued due to an adverse event
- most common adverse events (healthy adult subjects; all dose levels, 21 days): contact dermatitis and leukopenia, followed by constipation, diarrhea, nausea, and abdominal pain
- severity of adverse events (healthy adult subjects; all dose levels, 21 days): majority of adverse events were mild
- tolerability (healthy adult subjects; all dose levels, 21 days): tolerated at all dose levels; also recorded: well tolerated at all doses tested
